Laboratory results: patent US12286423B2, “Antiviral 1,3-di-oxo-indene compounds” (Novartis AG, priority 2020, dated 2025)

How the values were obtained:
[1] = cited from earlier work; for bioavailability / metabolization and excretion: in vivo
[2] = tested on: rhinoviruses and enteroviruses; conditions: cited from earlier work
[3] = cited from earlier work
[4] = cited from earlier work; remark: listed apart in the source
[5] = tested on: 48 rhinovirus types and coxsackievirus A21, B3, enterovirus 70 and echovirus 11; conditions: cited from earlier work
HRV A16 = HRV A16 CPE inhibition assay; format: cell-based; conditions: Human rhinovirus sp.; HRV A16, cytopathic effect inhibition
Description: (§1) Bioactivity of the Compounds of the Invention was Determined Using the Following Methods. Determination of Drug Efficacy Against Picornaviruses Using Cytopathic Effect (CPE) Inhibition Assay
(§2) In the assay, HeLa (human cervical cancer cells), MRC-5 (human fetal lung fibroblast cells), and RD cells (derived from human rhabdomyosarcoma) were employed. For comparison, ribavirin (Riv), Pleconaril (pleco), and […] (BTA) were used as controls. Reagents were dissolved at a concentration of 10-40 mg/ml in 100% dimethyl sulfoxide (DMSO). Water-soluble reagents were dissolved in PBS (−) solution and stored at −20° C. On the day of the experiment, they were used in 3 fold to 5 fold concentrations in such a manner that the concentration of dimethyl sulfoxide in each well was between 0.5% and 1%.
(§3) Pharmaceutical efficacy was determined using a virus-induced cytopathic effect (CPE) inhibition assay. In this regard, after cells suitable for viruses were grown in 96-well plates, dilutions of viruses in DME supplemented with 2% FBS (DME/2% FBS) or MEM supplemented with 2% FBS (MEM/2% FBS) were inoculated in an amount of […] with a concentration corresponding to 100 CCID50 (50% cell culture infective dose) into each well of the plates, and incubated for 30 min-1 hr at 33° C. or 37° C. to allow the viruses to adsorb onto the cells. The culture medium was removed before aliquots of drug dilutions with various concentrations were added in an amount of 100 μl to each well. While HRV (human rhinovirus) was grown at 33° C., the other viruses were incubated in a 37° C. CO2 incubator for 2-3 days. Alternatively, the cells were cultured for 2-3 days without removal of the medium after they were added with 50 μl of each drug dilution having a 2-fold higher concentration and then with 50 μl of the virus dilution. Viruses were incubated in host HeLa cells at 37° C. for 2-3 days in DME/2% or MEM/2% FBS.
(§4) For HeLa cells, the drugs were measured for EC50 (50% maximal effective concentration), which is the concentration of a drug inducing a response halfway between the baseline and maximum, using an MTT assay. With regard to RD and MRC-5 cells, CPE was determined using FDA (Fluorescein diacetate) or MTT. In order to determine the effect of drug toxicity on efficacy results, at the time of inoculation with the virus, mock-infection was also included. A virus-free medium was added to a cell culture, which was then subjected to the same treatment as the mock-infected cells inoculated with the virus. That is, the medium was removed after one hour of incubation, and dilutions of drugs in the medium were added once more. Following incubation for 2-3 days, the cells were observed under a microscope and the drugs were determined for CC50 (50% cytotoxic concentration) at which 50% of the cells were killed, using an MTT assay in which counts of viable cells in mock-infected wells containing drugs were compared to those of viable cells in control wells containing no drugs. In an FDA hydrolysis assay, FDA was added to each well after removal of the medium, and incubated for 20-30 min before fluorescence intensity was measured using a spectrofluorometer to determine CPE in the same manner as in MTT.
(§5) In addition, antiviral effects can be calculated using Mathematical Formula 2 below: Antiviral Effect=[A(Drug/Virus)−A(Virus Control)/A(Cell control)−A(Virus Control)]
(§6) If the survival rate is 100%, its antiviral effect is 100% whereas if the survival rate is 0%, its antiviral effect is none. […]
(§7) Specifically, cells grown to confluence in 96-well plates were infected with 100 50% cell culture infected doses (CCID50) of virus. After an adsorption period of 2 hrs at 37° C., the virus was removed and serial dilutions of the compounds were added. […] After removal of the medium, 90 μl of a culture medium and 10 μl of MTS-phenazine methosulfate (Promega, Leiden, The Netherlands) were added to each well. […]

HRV A29 = HRV A29 CPE inhibition assay; format: cell-based; conditions: Human rhinovirus sp.; HRV A29, cytopathic effect inhibition
Description: as §1, §2, §3, §4, §5, §6, §7

C15_C3 REPLICON = assay: C15_C3 replicon assay; format: cell-based
[6] = Cytotoxicity (CC50) in mock-infected cells, MTT assay; format: cell-based; conditions: human, HeLa cells (mock-infected), 50% cytotoxic concentration, read-out: CYTOTOX (CC50 μM)
Description: as §4
That is, the survival rate (% survival) of mock-infected cells for cytotoxicity measurement was calculated using the Mathematical Formula 1 below: Cell Drug=Survival by [A(Drug)−A(Background solution)/A(Cell control)−A(Background×100% Solution)]
While 100% cell survival means no cytotoxicity of the drug, the highest cytotoxicity is reflected by 0% cell survival. The 50% cytotoxic concentration was defined as the concentration required to reduce the cell number by 50%. This concentration of the drug is represented as CC50. Higher values mean lower cytotoxicity. […]
In Mathematical Formulae 3 and 4 above, • OD (CC) represents the OD of the background cell culture that is neither induced by a virus nor treated by chemical, • OD (VC) represents the OD of the control cell culture that is induced by a virus but not treated by chemical, • OD (Virus+Compound) represents the OD of the cell culture infected by a virus that has been treated with a concentrated compound, • OD (Compound) represents the OD of the cell culture that has been treated with a concentrated compound only, and • OD (Blank) represents the OD of the well to which only the cell culture has been added.
The effective concentration (EC50) represents the concentration of a drug at which 50% of cells are allowed to survive by CPE of an induced virus, and the cytotoxicity concentration (CC50) represents the concentration of a drug at which a compound has killed 50% of cells, and they were calculated by the logarithmic interpolation.

HRV A1B = HRV A1B CPE inhibition assay; format: cell-based; conditions: Human rhinovirus sp., cytopathic effect inhibition, read-out: HRV A1B_CPE (EC50 μM)
Description: as §1, §2, §3, §4, §5, §6, §7

HRV B14 = HRV B14 CPE inhibition assay; format: cell-based; conditions: Human rhinovirus sp.; HRV B14, cytopathic effect inhibition
Description: as §1, §2, §3, §4, §5, §6, §7

[7] = in vivo; cited from earlier work

## Cc1cc(CCCCCCCOc2ccc(C3=NCCO3)cc2)on1 [disoxaril]
[1]
  bioavailability: low bioavailability
  metabolization and excretion: rapid metabolization and excretion
[2]
  antiviral effects in the cell culture: very good antiviral effects

## CCC(=O)C(CCCCCCOc1ccc(OC)cc1Cl)C(=O)CC [Arildone]
[3]
  solubility: poor solubility
[1]
  bioavailability: low bioavailability
[2]
  antiviral effects in the cell culture: very good antiviral effects

## CC(C)S(=O)(=O)n1c(N)nc2ccc(/C(=N/O)c3ccccc3)cc21 [Enviroxime]
[4]
  pharmacokinetics in clinical studies: bad pharmacokinetics
  therapeutic effects in clinical studies: insignificant or few therapeutic effects

## CCOC(=O)/C=C/[C@H](C[C@@H]1CCNC1=O)NC(=O)[C@@H](CC(=O)[C@@H](NC(=O)c1cc(C)on1)C(C)C)Cc1ccc(F)cc1 [AG 7088]
[5]
  concentration range of effect in the cell culture: nanomolar concentration range

## CCOC(=O)c1ccc(OCCC2CCN(c3ccc(C)nn3)CC2)cc1 [pirodavir]
[2]
  antiviral effects in the cell culture: very good antiviral effects

## Cc1cc(CCCOc2c(C)cc(-c3noc(C(F)(F)F)n3)cc2C)on1 [Pleconaril]
[1]; oral
  oral bioavailability: very good oral bioavailability

## Cc1c(S(C)(=O)=O)c[nH]c1C(=O)NC12C(=O)c3c(N)cccc3C1(O)Oc1cc([C@H]3C[C@H]3C)ccc12 (stereo partly drawn) [Example 27, N-(1-amino-4b-hydroxy-7-((1S,2R)-2-methylcyclopropyl)-10-oxo-4b,10-dihydro-9bH-indeno[1,2-b]benzofuran-9b-yl)-3-methyl-4-(methylsulfonyl)-1H-pyrrole-2-carboxamide]
HRV A16
  EC50: 0.084 µM
HRV A29
  EC50: 0.079 µM
C15_C3 REPLICON
  EC50: 0.705 µM
[6]
  CC50: 40.4 µM
HRV A1B
  EC50: 0.02 µM
HRV B14
  EC50: 0.016 µM

## Cc1cc(CCCCCOc2c(Cl)cc(C3=NCCO3)cc2Cl)on1 [WIN 54954]
[7]
  side effects: skin rash
[1]
  metabolization and excretion: rapid metabolization and excretion

## Cc1cc(S(C)(=O)=O)[nH]c1C(=O)NC12C(=O)c3c(N)cccc3C1(O)Oc1cc([C@@H]3C[C@@H]3C)ccc12 (stereo partly drawn) [Example 26, N-(1-amino-4b-hydroxy-7-((1R,2S)-2-methylcyclopropyl)-10-oxo-4b,10-dihydro-9bH-indeno[1,2-b]benzofuran-9b-yl)-3-methyl-5-(methylsulfonyl)-1H-pyrrole-2-carboxamide]
HRV A16
  EC50: 0.093 µM
HRV A29
  EC50: 0.274 µM
C15_C3 REPLICON
  EC50: 8.37 µM
[6]
  CC50: 37.1 µM
HRV A1B
  EC50: 0.17 µM
HRV B14
  EC50: 0.016 µM
